Results reported in patent publication US20060167057A1, “Compounds for the treatment of CNS and amyloid associated diseases” (priority 2004, published 2006).

Target: T1, L1 transport system (large neutral amino acid carrier, L1-system carrier) (Rattus norvegicus, UniProt Q63016)
T1 construct: functionality of their endogenous transporters such as the L1-system carrier; endogenous in cells; host or cells: rat primary cerebrovascular (brain microcapillary) endothelial cells, RBEC
Experiment: Competitive binding assay to the brain L1 transport system (L-[U-14C]phenylalanine on rat primary cerebrovascular endothelial cells)
Conditions: for Status of Binding: compounds of Example 4, 10^−6, 10^−5 and 10^−4, Δ versus phenylalanine
How it was run: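 Cells were primary cerebral microvascular endothelial cells from cortices of 24-day-old rats, isolated by collagenase/DNAse digestion, dextran separation and mesh filtration.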

T1 sequence (Q63016 whole entry): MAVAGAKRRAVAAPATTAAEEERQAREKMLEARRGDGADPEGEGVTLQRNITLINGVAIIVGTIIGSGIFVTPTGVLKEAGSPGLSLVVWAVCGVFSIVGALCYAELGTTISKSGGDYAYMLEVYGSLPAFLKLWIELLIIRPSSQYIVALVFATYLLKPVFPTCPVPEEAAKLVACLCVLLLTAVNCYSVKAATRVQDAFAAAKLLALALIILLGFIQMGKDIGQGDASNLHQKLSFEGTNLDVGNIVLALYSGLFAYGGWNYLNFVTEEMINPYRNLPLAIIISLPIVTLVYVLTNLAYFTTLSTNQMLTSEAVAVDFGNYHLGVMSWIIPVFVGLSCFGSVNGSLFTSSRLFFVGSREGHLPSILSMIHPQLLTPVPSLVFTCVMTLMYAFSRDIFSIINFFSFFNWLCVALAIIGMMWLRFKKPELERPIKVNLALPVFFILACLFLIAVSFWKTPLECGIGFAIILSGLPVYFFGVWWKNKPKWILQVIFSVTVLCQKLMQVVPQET
T1 sequence (Q794F9 whole entry partner): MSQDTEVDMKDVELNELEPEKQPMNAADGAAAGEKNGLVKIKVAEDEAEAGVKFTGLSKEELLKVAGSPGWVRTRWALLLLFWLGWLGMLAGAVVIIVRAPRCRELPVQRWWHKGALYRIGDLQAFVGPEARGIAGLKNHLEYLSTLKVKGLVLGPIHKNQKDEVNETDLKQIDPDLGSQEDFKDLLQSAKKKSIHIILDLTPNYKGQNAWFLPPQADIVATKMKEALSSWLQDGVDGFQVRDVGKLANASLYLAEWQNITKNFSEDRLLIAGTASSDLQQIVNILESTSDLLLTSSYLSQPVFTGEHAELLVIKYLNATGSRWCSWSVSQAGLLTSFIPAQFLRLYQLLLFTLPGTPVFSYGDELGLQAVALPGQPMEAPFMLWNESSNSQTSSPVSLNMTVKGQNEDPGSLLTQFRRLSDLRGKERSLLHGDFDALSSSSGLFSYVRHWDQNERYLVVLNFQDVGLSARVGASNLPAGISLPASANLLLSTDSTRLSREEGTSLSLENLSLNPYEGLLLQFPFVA

Row | Compound | Comparison with the Binding of Phenylalanine (10^−4 M) | Comparison with the Binding of Phenylalanine (10^−5 M) | Comparison with the Binding of Phenylalanine (10^−6 M) | Status of Binding
1 | Cc1nnc(Sc2cccc(-c3cccc(CC(N)C(=O)O)c3)c2)s1 (centres unmarked) [Compound 111] | 2 (10 < X < 20 Rank 2) | 3 (X > 20 Rank 3) | 3 (X > 20 Rank 3) | –
2 | N[C@@H](Cc1ccccc1)C(=O)NC(Cc1cccc(CSc2cncc3c(C(F)(F)F)cccc23)n1)C(=O)O (some centres unmarked) [Compound 26] | 0 (X < 0 Rank 0) | 0 (X < 0 Rank 0) | 1 (0 < X < 10 Rank 1) | –
3 | Cc1ccnc(SCc2cccc(CC(N)C(=O)O)n2)n1 (centres unmarked) [Compound 121] | 0 (X < 0 Rank 0) | 0 (X < 0 Rank 0) | 1 (0 < X < 10 Rank 1) | –
4 | N#CC1(c2ccccc2)CCN(Cc2ccc(-c3ccc(CC(N)C(=O)O)cc3)cc2)CC1 (centres unmarked) [Compound 147] | 0 (X < 0 Rank 0) | 0 (X < 0 Rank 0) | 1 (0 < X < 10 Rank 1) | –
5 | Cc1ccnc(SCc2ccc(-c3ccc(CC(N)C(=O)O)cc3)cc2)n1 (centres unmarked) [Compound 151] | 0 (X < 0 Rank 0) | 0 (X < 0 Rank 0) | 2 (10 < X < 20 Rank 2) | –
6 | COc1ccc2[nH]c(SCc3ccc(-c4ccc(CC(N)C(=O)O)cc4)cc3)nc2c1 (centres unmarked) [Compound 91] | 1 (0 < X < 10 Rank 1) | 1 (0 < X < 10 Rank 1) | 0 (X < 0 Rank 0) | –
7 | N[C@@H](Cc1cccc(CS(=O)(=O)c2nc3ccccc3[nH]2)n1)C(=O)O [drawing 473] | – | – | – | 0 (0: Δ ≦ −50%, no binding or very low binding affinity)
8 | NC(=O)C(Cc1cccc(CSc2nnc(-c3ccncc3)o2)c1)NC(=O)NC(c1ccccc1)c1ccccc1 (centres unmarked) [Compound 55] | 1 (0 < X < 10 Rank 1) | 3 (X > 20 Rank 3) | 2 (10 < X < 20 Rank 2) | –
9 | NC(Cc1cccc(CSc2nnnn2-c2ccccc2)c1)C(=O)O (centres unmarked) [Compound 8] | 3 (X > 20 Rank 3) | 3 (X > 20 Rank 3) | 3 (X > 20 Rank 3) | –
10 | N[C@@H](Cc1cccc(CSc2nc3ccccc3[nH]2)n1)C(=O)O [drawing 471] | – | – | – | 1 (1: −10 > Δ > −50%, lower binding affinity than phenylalanine)
11 | CN(C)CCn1nnnc1Sc1cccc(-c2cccc(CC(N)C(=O)O)c2)c1 (centres unmarked) [Compound 103] | 2 (10 < X < 20 Rank 2) | 2 (10 < X < 20 Rank 2) | 2 (10 < X < 20 Rank 2) | –
12 | CN(C)CCn1nnnc1SCc1cccc(CC(N)C(=O)O)c1 (centres unmarked) [Compound 73] | 1 (0 < X < 10 Rank 1) | 3 (X > 20 Rank 3) | 1 (0 < X < 10 Rank 1) | –
13 | CCOC(=O)c1cnc(SCc2cccc(CC(N)C(=O)O)n2)[nH]c1=O (centres unmarked) [Compound 146] | 2 (10 < X < 20 Rank 2) | 3 (X > 20 Rank 3) | 3 (X > 20 Rank 3) | –
14 | NC(Cc1ccc(-c2ccc(CSc3nc(-c4ccccc4)c(-c4ccccc4)[nH]3)cc2)cc1)C(=O)O (centres unmarked) [Compound 149] | 3 (X > 20 Rank 3) | 3 (X > 20 Rank 3) | 2 (10 < X < 20 Rank 2) | –
15 | O=C(Nc1ccc(-c2ccccc2)cc1)NC(Cc1cccc(CSc2cncc3c(C(F)(F)F)cccc23)n1)C(=O)O (centres unmarked) [Compound 61] | 2 (10 < X < 20 Rank 2) | 0 (X < 0 Rank 0) | 2 (10 < X < 20 Rank 2) | –
16 | NC(=O)C(N)Cc1cccc(CSc2nnc(-c3ccccc3)[nH]2)c1 (centres unmarked) [Compound 14] | 0 (X < 0 Rank 0) | 3 (X > 20 Rank 3) | 2 (10 < X < 20 Rank 2) | –
17 | N[C@@H](Cc1cccc(CSc2nc3ccccc3[nH]2)c1)C(=O)O [drawing 469] | – | – | – | 1 (1: −10 > Δ > −50%, lower binding affinity than phenylalanine)
18 | NC(Cc1cccc(-c2cccc(N3CCN(c4cccc(Cl)c4)CC3)c2)c1)C(=O)O (centres unmarked) [Compound 101] | 2 (10 < X < 20 Rank 2) | 3 (X > 20 Rank 3) | 3 (X > 20 Rank 3) | –
19 | N#CC1(c2ccccc2)CCN(Cc2cccc(CC(N)C(=O)O)n2)CC1 (centres unmarked) [Compound 117] | 0 (X < 0 Rank 0) | 0 (X < 0 Rank 0) | 1 (0 < X < 10 Rank 1) | –
20 | N[C@@H](Cc1cccc(CSc2nnc(-c3ccncc3)[nH]2)c1)C(=O)O [drawing 486] | – | – | – | 2 (2: 10% ≧ Δ ≧ −10% similar binding affinity to phenylalanine)

Row | Compound | Comparison with the Binding of Phenylalanine (10^−4 M) | Comparison with the Binding of Phenylalanine (10^−5 M) | Comparison with the Binding of Phenylalanine (10^−6 M) | Status of Binding
21 | N[C@@H](Cc1cccc(C[S+]([O-])c2nnnn2-c2ccccc2)n1)C(=O)O (some centres unmarked) [drawing 479] | – | – | – | 1 (1: −10 > Δ > −50%, lower binding affinity than phenylalanine)
22 | NC(Cc1cccc(CSc2nc(-c3ccccc3)c(-c3ccccc3)o2)n1)C(=O)O (centres unmarked) [Compound 119] | 2 (10 < X < 20 Rank 2) | 3 (X > 20 Rank 3) | 1 (0 < X < 10 Rank 1) | –
23 | NC(Cc1cccc(CSc2nnnn2CC(=O)O)n1)C(=O)O (centres unmarked) [Compound 123] | 0 (X < 0 Rank 0) | 2 (10 < X < 20 Rank 2) | 2 (10 < X < 20 Rank 2) | –
24 | N[C@@H](Cc1cccc(CSc2nc3ccc(Cl)cc3s2)n1)C(=O)O [drawing 477] | – | – | – | 1 (1: −10 > Δ > −50%, lower binding affinity than phenylalanine)
25 | NC(Cc1cccc(CSc2ncccn2)n1)C(=O)O (centres unmarked) [Compound 154] | 1 (0 < X < 10 Rank 1) | 0 (X < 0 Rank 0) | 0 (X < 0 Rank 0) | –
26 | O=C(Nc1ccc(-c2ccccc2)cc1)NC(Cc1cccc(CSc2nc3ccccc3[nH]2)n1)C(=O)O (centres unmarked) [Compound 62] | 0 (X < 0 Rank 0) | 0 (X < 0 Rank 0) | 3 (X > 20 Rank 3) | –
27 | COc1ccc2[nH]c(Sc3cccc(-c4cccc(CC(N)C(=O)O)c4)c3)nc2c1 (centres unmarked) [Compound 76] | 0 (X < 0 Rank 0) | 0 (X < 0 Rank 0) | 1 (0 < X < 10 Rank 1) | –
28 | NC(Cc1cccc(CN2CCN(c3ncccn3)CC2)n1)C(=O)O (centres unmarked) [Compound 158] | 0 (X < 0 Rank 0) | 0 (X < 0 Rank 0) | 1 (0 < X < 10 Rank 1) | –
29 | NC(Cc1cccc(CSc2nc3cc([N+](=O)[O-])ccc3[nH]2)c1)C(=O)O (centres unmarked) [Compound 79] | 2 (10 < X < 20 Rank 2) | 3 (X > 20 Rank 3) | 0 (X < 0 Rank 0) | –
30 | NC(Cc1cccc(CSc2nnc(-c3ccccc3)[nH]2)c1)C(=O)O (centres unmarked) [Compound 13] | 3 (X > 20 Rank 3) | 3 (X > 20 Rank 3) | 3 (X > 20 Rank 3) | –
31 | N[C@@H](Cc1cccc(CSc2nccc(C(F)(F)F)n2)n1)C(=O)O [drawing 476] | – | – | – | 1 (1: −10 > Δ > −50%, lower binding affinity than phenylalanine)
32 | N#CC1(c2ccccc2)CCN(Cc2cccc(CC(N)C(=O)O)c2)CC1 (centres unmarked) [Compound 102] | 1 (0 < X < 10 Rank 1) | 1 (0 < X < 10 Rank 1) | 0 (X < 0 Rank 0) | –
33 | Cn1cnnc1SCc1ccc(-c2ccc(CC(N)C(=O)O)cc2)cc1 (centres unmarked) [Compound 97] | 2 (10 < X < 20 Rank 2) | 3 (X > 20 Rank 3) | 2 (10 < X < 20 Rank 2) | –
34 | NC(Cc1ccc(-c2ccc(CSc3nc(-c4ccccc4)c(-c4ccccc4)[nH]3)cc2)cc1)C(=O)O (centres unmarked) [Compound 89] | 1 (0 < X < 10 Rank 1) | 1 (0 < X < 10 Rank 1) | 1 (0 < X < 10 Rank 1) | –
35 | NC(Cc1ccc(-c2ccc(CSc3ccc4ccccc4n3)cc2)cc1)C(=O)O (centres unmarked) [Compound 159] | 0 (X < 0 Rank 0) | 0 (X < 0 Rank 0) | 1 (0 < X < 10 Rank 1) | –
36 | Cc1nnc(SCc2cccc(CC(N)C(=O)O)n2)s1 (centres unmarked) [Compound 96] | 0 (X < 0 Rank 0) | 1 (0 < X < 10 Rank 1) | 1 (0 < X < 10 Rank 1) | –
37 | COc1ccc(-n2nnnc2[S+]([O-])Cc2cccc(C[C@H](N)C(=O)O)c2)cc1 (some centres unmarked) [drawing 481] | – | – | – | 3 (3: Δ > 10%, significantly higher binding affinity than phenylalanine)
38 | NC(Cc1cccc(CN2CCN(c3cccc(Cl)c3)CC2)n1)C(=O)O (centres unmarked) [Compound 86] | 1 (0 < X < 10 Rank 1) | 2 (10 < X < 20 Rank 2) | 1 (0 < X < 10 Rank 1) | –
39 | NC(Cc1cccc(CN2CCN(c3ccc(F)cc3)CC2)c1)C(=O)O (centres unmarked) [Compound 75] | 0 (X < 0 Rank 0) | 0 (X < 0 Rank 0) | 1 (0 < X < 10 Rank 1) | –
40 | NC(Cc1cccc(CSc2nc3ccccc3c(=O)[nH]2)c1)C(=O)O (centres unmarked) [Compound 110] | 1 (0 < X < 10 Rank 1) | 1 (0 < X < 10 Rank 1) | 1 (0 < X < 10 Rank 1) | –
